The values below come from PMC10600165 (Nature Communications, 2023).

This test addresses HK68 (human A/H3N2 HA) (Influenza A virus (A/Hong Kong/1/1968(H3N2)), UniProt Q91MA7). The format is binding.

Chain of HK68 (human A/H3N2 HA) (Influenza A virus (A/Hong Kong/1/1968(H3N2)), UniProt Q91MA7) (Q91MA7 17-530 limits assumed): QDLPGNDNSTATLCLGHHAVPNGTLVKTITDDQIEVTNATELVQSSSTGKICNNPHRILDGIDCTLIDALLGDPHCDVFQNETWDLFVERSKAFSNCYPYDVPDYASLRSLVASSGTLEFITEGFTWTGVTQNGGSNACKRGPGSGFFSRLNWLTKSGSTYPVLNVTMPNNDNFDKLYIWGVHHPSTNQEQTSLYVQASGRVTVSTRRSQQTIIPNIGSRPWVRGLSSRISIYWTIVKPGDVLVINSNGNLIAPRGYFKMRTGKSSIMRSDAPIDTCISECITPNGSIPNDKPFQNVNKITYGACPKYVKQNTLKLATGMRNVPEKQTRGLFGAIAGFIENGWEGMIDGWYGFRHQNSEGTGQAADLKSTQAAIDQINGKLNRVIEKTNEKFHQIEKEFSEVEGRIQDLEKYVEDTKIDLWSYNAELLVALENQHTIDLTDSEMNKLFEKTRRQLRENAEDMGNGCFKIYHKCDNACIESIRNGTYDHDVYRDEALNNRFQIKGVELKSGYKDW

For the molecule `CC(=O)N[C@H]1[C@H](OCCCCCNC(=O)CCCC[C@@H]2SC[C@@H]3NC(=O)N[C@@H]32)O[C@H](CO)[C@@H](O[C@@H]2O[C@H](CO[C@]3(C(=O)O)C[C@H](OC(C)=O)[C@@H](NC(C)=O)[C@H]([C@H](O)[C@H](O)CO)O3)[C@H](O)[C@H](O)[C@H]2O)[C@@H]1O` [compound 6], the “glycan microarray, fluorescence” value was “specific for 4-O-acetylated Neu5Ac and does not depend on linkage type”.
